{
  "source": "patent US5622950A",
  "about": "“Pyrrolo-pyridine derivatives” (Merck, Sharp & Dohme Ltd., priority 1993, dated 1997)",
  "key": {"[1]": {"target": "T1, human dopamine D4 receptor subtype (Homo sapiens, UniProt P21917)", "T1 sequence (P21917 1-419)": "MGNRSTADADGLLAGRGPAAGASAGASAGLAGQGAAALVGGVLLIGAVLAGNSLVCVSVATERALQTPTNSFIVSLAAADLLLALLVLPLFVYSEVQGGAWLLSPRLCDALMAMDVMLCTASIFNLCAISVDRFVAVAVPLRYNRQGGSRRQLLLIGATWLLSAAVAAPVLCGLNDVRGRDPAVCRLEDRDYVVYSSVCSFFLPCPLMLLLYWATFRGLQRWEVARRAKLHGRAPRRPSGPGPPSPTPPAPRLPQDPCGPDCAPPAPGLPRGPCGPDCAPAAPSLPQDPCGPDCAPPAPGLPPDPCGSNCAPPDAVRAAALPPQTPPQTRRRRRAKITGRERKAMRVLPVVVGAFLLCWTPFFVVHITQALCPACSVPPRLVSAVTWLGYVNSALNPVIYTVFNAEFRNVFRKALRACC", "test": "[3H]-Spiperone binding (displacement), human dopamine D4 receptor subtype", "conditions": "selectivity ratio from Ki values for D4 and D2 subtypes"}, "[2]": {"target": "T2, human dopamine D2 receptor subtype (Homo sapiens, UniProt P14416)", "T2 construct": "expressed in transfected cells", "T2 sequence (P14416 whole entry)": "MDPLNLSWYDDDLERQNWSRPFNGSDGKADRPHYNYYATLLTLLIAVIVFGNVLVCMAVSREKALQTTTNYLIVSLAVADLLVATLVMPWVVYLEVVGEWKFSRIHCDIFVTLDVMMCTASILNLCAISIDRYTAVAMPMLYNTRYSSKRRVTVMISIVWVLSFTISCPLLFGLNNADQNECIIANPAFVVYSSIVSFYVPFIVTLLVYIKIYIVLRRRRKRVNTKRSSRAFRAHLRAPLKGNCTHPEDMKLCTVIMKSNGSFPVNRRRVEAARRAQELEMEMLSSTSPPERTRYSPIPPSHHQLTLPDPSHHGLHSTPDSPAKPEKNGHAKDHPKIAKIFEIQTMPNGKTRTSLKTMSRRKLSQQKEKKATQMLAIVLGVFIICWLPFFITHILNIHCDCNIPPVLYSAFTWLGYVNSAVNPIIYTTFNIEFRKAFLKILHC", "test": "[3H]-Spiperone binding (displacement), human dopamine D2 receptor subtype", "conditions": "human dopamine D2 receptor subtype expressed in clonal cell lines"}, "[3]": {"tested_on": "apomorphine-induced stereotypy", "test": "Extrapyramidal disorders: effect on apomorphine-induced stereotypy in the rat", "format": "in vivo", "text": "Representative compounds according to the invention have been tested for their effect on apomorphine-induced stereotypy in the rat. This is an art-recognised model of the potential to induce extrapyramidal side-effects."}, "[4]": {"tested_on": "spontaneous motor activity", "test": "Sedation: effects on spontaneous motor activity of rats in novel cages equipped with photocells (number of cage crossings)", "format": "in vivo", "conditions": "rat", "text": "Representative compounds according to the invention have been tested for their effects on spontaneous motor activity occasioned by placing rats in novel cages equipped with photocells in order to determine the number of cage crossings. This is an art-recognised model of the sedation potential of a given test compound."}},
  "data": [
    {"smiles": "COc1ccc(N2CCN(Cc3c[nH]c4ncccc34)CC2)cc1", "note": "[Example 2, 3-(4-[4-Methoxyphenyl]piperazin-1-yl)methyl-1H-pyrrolo [2,3-b]pyridine]", "values": [
      {"measurement": "D4:D2 ratio", "setting": "[1]", "value": "greater than 1150"},
      {"measurement": "Ki", "setting": "[2]", "value": "> 1.5", "unit": "µM"}
    ]},
    {"smiles": "Clc1ccc(N2CCN(Cc3c[nH]c4ncccc34)CC2)cc1", "note": "[Example 5, 3-(4-[4-Chlorophenyl]piperazin-1-yl)methyl-1H-pyrrolo [2,3-b]pyridine]", "values": [
      {"measurement": "potential to induce extrapyramidal side-effects (apomorphine-induced stereotypy)", "setting": "[3]; doses up to 1.0 mg/kg", "value": "no potential to induce the extrapyramidal side-effects"},
      {"measurement": "sedation (spontaneous motor activity)", "setting": "[4]; doses of up to 10-30 mg/kg", "value": "no evidence for sedation"}
    ]},
    {"smiles": "O=C(CCCN1CCC(O)(c2ccc(Cl)cc2)CC1)c1ccc(F)cc1", "note": "[haloperidol, reference compound]", "values": [
      {"measurement": "potential to elicit extrapyramidal side-effects (apomorphine-induced stereotypy)", "setting": "[3]; doses of 0.5 and 1.0 mg/kg", "value": "significant potential to elicit extrapyramidal side-effects"},
      {"measurement": "sedation (spontaneous motor activity)", "setting": "[4]; dose of 1 mg/kg", "value": "marked sedation"}
    ]}
  ]
}
